Nine molecules from patent US20100048462A1, “TRUNCATED PTH PEPTIDES WITH A CYCLIC CONFORMATION” (Zealand Pharma A/S, priority 2006, published 2010) can be followed below.

Bridge positions count the residues as written; N and C are the ends. Square brackets hold non-standard residues; d marks the D form. Peptide text beside a SMILES is read from it. I, II: the chains in the order shown. hArg = N=C(N)NCCCC[C@H](N)C(=O)O; Ac5c = NC1(C(=O)O)CCCC1; Nva = CCC[C@H](N)C(=O)O; Abu = CC[C@H](N)C(=O)O; Aib = CC(C)(N)C(=O)O

In this assay the target is T1, Saos-2 PTH1R (Homo sapiens, UniProt Q03431).
T1 construct: endogenous in cells; host or cells: Saos-2
T1 sequence (Q03431 27-593): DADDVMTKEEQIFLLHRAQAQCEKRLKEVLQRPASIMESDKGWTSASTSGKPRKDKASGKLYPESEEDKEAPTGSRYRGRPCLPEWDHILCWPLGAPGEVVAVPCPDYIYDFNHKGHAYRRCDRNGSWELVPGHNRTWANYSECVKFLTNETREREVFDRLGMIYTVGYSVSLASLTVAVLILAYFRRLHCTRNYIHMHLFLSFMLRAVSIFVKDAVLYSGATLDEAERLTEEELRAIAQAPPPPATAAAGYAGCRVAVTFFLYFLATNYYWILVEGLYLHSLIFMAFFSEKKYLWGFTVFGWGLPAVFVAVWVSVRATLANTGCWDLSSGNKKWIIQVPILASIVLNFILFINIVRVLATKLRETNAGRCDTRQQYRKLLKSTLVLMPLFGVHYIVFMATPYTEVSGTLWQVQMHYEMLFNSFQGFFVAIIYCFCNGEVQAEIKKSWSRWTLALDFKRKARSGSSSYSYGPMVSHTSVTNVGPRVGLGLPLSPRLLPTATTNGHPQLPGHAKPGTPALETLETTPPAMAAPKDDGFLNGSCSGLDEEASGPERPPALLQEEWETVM
In words: cAMP-efficacy assay in Saos-2 cells. The note with it: for Emax ± SEM: relative effect to the control (SEQ ID NO: 32); for EC50: cAMP, 100 μM IBMX, 37° C. 15 min, suffix of label = salt tested. Format: cell-based. The protocol: Peptides were dissolved in phosphate buffered saline and further diluted in Tyrode's buffer (TB, Sigma-Aldrich) containing 0.1% BSA and 100 μM isobutyl-methyl-xanthine (IBMX, Sigma-Aldrich). Saos-2 cells were seeded at 50,000 cells/well in 96-microtiter plates and grown for two days before the efficacy assays. On the day of analysis, the growth medium was carefully removed by suction. Cells were washed once with 200 μl TB/0.1% BSA. The buffer was replaced with 100 μl reaction mixture (±test peptide), and incubated at 37° C. for 15 min. The reaction was stopped by addition of 25 μl of ice-cold 0.5 M HCl. Cells were in the following incubated on ice for 60 min. 75 μl acetate-buffer, pH6.2, was added to each well of a 96-well cAMP FlashPlate (Perkin-Elmer). […] FlashPlates were incubated overnight at 4° C., emptied by suction and counted in a TopCounter (Packard).
Determinations were performed in single determinations or triplicates at all doses. […] Standards were included as single determinations, duplicates or triplicates in each experiment, preferentially on each plate.
Concentration-dependent cAMP responses were imported into GraphPad Prism vers. 4 (GraphPad Software), transformed and plotted. […] Thus, a four-parameter logistic equation was used for determination of the EC50 values. Curves were fitted with a function for sigmoidal dose response curve (variable slope) non-linear fit Y=Bottom+(Top-Bottom)/(1+10̂((LogEC50−X)*HillSlope)) where X is the logarithm of concentration and Y is the response. Y starts at Bottom and goes to Top with a sigmoid shape. pEC50, Hill-coefficient and the maximally inducible concentration of cAMP (Emax) were evaluated.
Overall statistical differences were analyzed with Statistica (Statsoft) using one-way ANOVA. Post-hoc comparisons were made by the use of Fisher's Least Significance Test. Results were considered significant, when p was lower than 0.05.

With `CC[C@H](C)[C@H](NC(=O)[C@H](CCC(=O)O)NC(=O)C(C)(C)NC(=O)[C@@H](NC(=O)C1(N)CCCC1)C(C)C)C(=O)N[C@@H](CCC(N)=O)C(=O)N[C@@H](CC(C)C)C(=O)N[C@@H](CCSC)C(=O)N[C@@H](Cc1c[nH]cn1)C(=O)N[C@@H](CCC(N)=O)C(=O)N[C@@H](CCCCNC(=N)N)C(=O)N[C@@H](C)C(=O)N[C@H]1CCCCNC(=O)C[C@@H](C(N)=O)NC(=O)[C@H](CC(N)=O)NC(=O)[C@H](CC(C)C)NC(=O)[C@H](Cc2c[nH]c3ccccc23)NC(=O)[C@@H](NC(=O)[C@H](C)NC(=O)[C@H](CCCCNC(=N)N)NC(=O)[C@H](CCC(N)=O)NC(=O)[C@H](Cc2c[nH]cn2)NC(=O)[C@H](CCSC)NC(=O)[C@H](CC(C)C)NC(=O)[C@H](CCC(N)=O)NC(=O)[C@@H](NC(=O)[C@H](CCC(=O)O)NC(=O)C(C)(C)NC(=O)[C@@H](NC(=O)C2(N)CCCC2)C(C)C)[C@@H](C)CC)CCCCNC(=O)C[C@@H](C(N)=O)NC(=O)[C@H](CC(N)=O)NC(=O)[C@H](CC(C)C)NC(=O)[C@H](Cc2c[nH]c3ccccc23)NC1=O` [SEQ ID NO: 39, (H-Ac5c-Val-Aib-Glu-Ile-Gln-Leu-Met-His-Gln-Har-Ala-Lys( )-Trp-Leu-Asn-Asp( )-NH2)2] (I: H-[Ac5c]V[Aib]EIQLMHQ[hArg]AKWLND-NH2 / II: H-[Ac5c]V[Aib]EIQLMHQ[hArg]AKWLND-NH2; amide I:13-II:17, I:17-II:13), the “Emax ± SEM” value turned out to be 0.95 ± 0.05.

As to `CCC[C@H](NC(=O)[C@@H](NC(=O)C1(N)CCCC1)C(C)C)C(=O)N[C@@H](CCC(=O)O)C(=O)N[C@H](C(=O)N[C@@H](CCC(N)=O)C(=O)N[C@@H](CC(C)C)C(=O)N[C@@H](CC(C)C)C(=O)N[C@@H](Cc1c[nH]cn1)C(=O)N[C@@H](CCC(N)=O)C(=O)N[C@@H](CCCCNC(=N)N)C(=O)N[C@@H](C)C(=O)N[C@H]1CCCCNC(=O)C[C@@H](C(N)=O)NC(=O)[C@H](CC(N)=O)NC(=O)[C@H](CC(C)C)NC(=O)[C@H](Cc2c[nH]c3ccccc23)NC1=O)[C@@H](C)CC` [SEQ ID NO: 16, H-Ac5c-Val-Nva-Glu-Ile-Gln-Leu-Leu-His-Gln-Har-Ala-Lys( )-Trp-Leu-Asn-Asp( )-NH2] (H-[Ac5c]V[Nva]EIQLLHQ[hArg]AKWLND-NH2; lactam 13-17), the EC50 is 120 nM and the “Emax ± SEM” value was 1.03 ± 0.04.

On to `CCC[C@H](N)C(=O)N[C@H](C(=O)NC(C)(C)C(=O)N[C@@H](CCC(=O)O)C(=O)N[C@H](C(=O)N[C@@H](CCC(N)=O)C(=O)N[C@@H](CC(C)C)C(=O)N[C@@H](CC(C)C)C(=O)N[C@@H](Cc1c[nH]cn1)C(=O)N[C@@H](CCC(N)=O)C(=O)N[C@@H](CCCCNC(=N)N)C(=O)N[C@@H](C)C(=O)N[C@H]1CCCCNC(=O)C[C@@H](C(N)=O)NC(=O)[C@H](CC(N)=O)NC(=O)[C@H](CC(C)C)NC(=O)[C@H](Cc2c[nH]c3ccccc23)NC1=O)[C@@H](C)CC)C(C)C` [SEQ ID NO: 12, H-Nva-Val-Aib-Glu-Ile-Gln-Leu-Leu-His-Gln-Har-Ala-Lys( )-Trp-Leu-Asn-Asp( )-NH2] (H-[Nva]V[Aib]EIQLLHQ[hArg]AKWLND-NH2; lactam 13-17), for which the EC50 is 102 nM and the “Emax ± SEM” value is on record as 1.04 ± 0.03. On the same counts, the results for `CC[C@H](N)C(=O)N[C@H](C(=O)NC(C)(C)C(=O)N[C@@H](CCC(=O)O)C(=O)N[C@H](C(=O)N[C@@H](CCC(N)=O)C(=O)N[C@@H](CC(C)C)C(=O)N[C@@H](CC(C)C)C(=O)N[C@@H](Cc1c[nH]cn1)C(=O)N[C@@H](CCC(N)=O)C(=O)N[C@@H](CCCCNC(=N)N)C(=O)N[C@@H](C)C(=O)N[C@H]1CCCCNC(=O)C[C@@H](C(N)=O)NC(=O)[C@H](CC(N)=O)NC(=O)[C@H](CC(C)C)NC(=O)[C@H](Cc2c[nH]c3ccccc23)NC1=O)[C@@H](C)CC)C(C)C` [SEQ ID NO: 11, H-Abu-Val-Aib-Glu-Ile-Gln-Leu-Leu-His-Gln-Har-Ala-Lys( )-Trp-Leu-Asn-Asp( )-NH2] (H-[Abu]V[Aib]EIQLLHQ[hArg]AKWLND-NH2; lactam 13-17) are 67.6 nM and 1.04 ± 0.05.

Consider `CC[C@H](C)[C@H](NC(=O)[C@H](CCC(=O)O)NC(=O)C(C)(C)NC(=O)[C@@H](NC(=O)C1(N)CCCC1)C(C)C)C(=O)N[C@@H](CCC(N)=O)C(=O)N[C@@H](CC(C)C)C(=O)N[C@@H](CCSC)C(=O)N[C@@H](Cc1c[nH]cn1)C(=O)N[C@@H](CCC(N)=O)C(=O)N[C@@H](CCCCNC(=N)N)C(=O)N[C@@H](C)C(=O)N[C@H]1CCCCNC(=O)C[C@@H](C(N)=O)NC(=O)[C@H](CC(N)=O)NC(=O)[C@H](CC(C)C)NC(=O)[C@H](Cc2c[nH]c3ccccc23)NC1=O` [2T, H-Ac5c-Val-Aib-Glu-Ile-Gln-Leu-Met-His-Gln-Har-Ala-Lys( )Trp-Leu-Asn-Asp( )-NH2] (H-[Ac5c]V[Aib]EIQLMHQ[hArg]AKWLND-NH2; lactam 13-17), for which the EC50 was 6.61 nM and the “Emax ± SEM” value is 0.70 ± 0.09. Consider `CC[C@H](C)[C@H](NC(=O)[C@H](CCC(=O)O)NC(=O)C1(NC(=O)[C@@H](NC(=O)C(C)(C)N)C(C)C)CCCC1)C(=O)N[C@@H](CCC(N)=O)C(=O)N[C@@H](CC(C)C)C(=O)N[C@@H](CC(C)C)C(=O)N[C@@H](Cc1c[nH]cn1)C(=O)N[C@@H](CCC(N)=O)C(=O)N[C@@H](CCCCNC(=N)N)C(=O)N[C@@H](C)C(=O)N[C@H]1CCCCNC(=O)C[C@@H](C(N)=O)NC(=O)[C@H](CC(N)=O)NC(=O)[C@H](CC(C)C)NC(=O)[C@H](Cc2c[nH]c3ccccc23)NC1=O` [SEQ ID NO: 13, H-Aib-Val-Ac5c-Glu-Ile-Gln-Leu-Leu-His-Gln-Har-Ala-Lys( )-Trp-Leu-Asn-Asp( )-NH2] (H-[Aib]V[Ac5c]EIQLLHQ[hArg]AKWLND-NH2; lactam 13-17), for which the EC50 was 53.7 nM and the “Emax ± SEM” value is reported as 0.96 ± 0.03. On the same counts, the results for `CC[C@H](C)[C@H](NC(=O)[C@H](CCC(=O)O)NC(=O)C1(NC(=O)[C@@H](NC(=O)C2(N)CCCC2)C(C)C)CCCC1)C(=O)N[C@@H](CCC(N)=O)C(=O)N[C@@H](CC(C)C)C(=O)N[C@@H](CC(C)C)C(=O)N[C@@H](Cc1c[nH]cn1)C(=O)N[C@@H](CCC(N)=O)C(=O)N[C@@H](CCCCNC(=N)N)C(=O)N[C@@H](C)C(=O)N[C@H]1CCCCNC(=O)C[C@@H](C(N)=O)NC(=O)[C@H](CC(N)=O)NC(=O)[C@H](CC(C)C)NC(=O)[C@H](Cc2c[nH]c3ccccc23)NC1=O` [SEQ ID NO: 14, H-Ac5c-Val-Ac5c-Glu-Ile-Gln-Leu-Leu-His-Gln-Har-Ala-Lys( )-Trp-Leu-Asn-Asp( )-NH2] (H-[Ac5c]V[Ac5c]EIQLLHQ[hArg]AKWLND-NH2; lactam 13-17) are 35.5 nM and 1.03 ± 0.05. For `CC[C@H](C)[C@H](NC(=O)[C@H](CCC(=O)O)NC(=O)C(C)(C)NC(=O)[C@@H](NC(=O)C1(N)CCCC1)C(C)C)C(=O)N[C@@H](CCC(N)=O)C(=O)N[C@@H](CC(C)C)C(=O)N[C@@H](CCSC)C(=O)N[C@@H](Cc1c[nH]cn1)C(=O)N[C@@H](CCC(N)=O)C(=O)N[C@@H](CCCCNC(=N)N)C(=O)N[C@@H](C)C(=O)N[C@H]1CCCCNC(=O)C[C@@H](C(N)=O)NC(=O)[C@H](CC(N)=O)NC(=O)[C@H](CC(C)C)NC(=O)[C@H](Cc2c[nH]c3ccccc23)NC1=O` [2A, H-Ac5c-Val-Aib-Glu-Ile-Gln-Leu-Met-His-Gln-Har-Ala-Lys( )Trp-Leu-Asn-Asp( )-NH2] (H-[Ac5c]V[Aib]EIQLMHQ[hArg]AKWLND-NH2; lactam 13-17), the EC50 was 6.31 nM and the “Emax ± SEM” value is 0.99 ± 0.03.

For `CC[C@H](C)[C@H](NC(=O)[C@H](CCC(=O)O)NC(=O)C(C)(C)NC(=O)[C@@H](NC(=O)C1(N)CCCC1)C(C)C)C(=O)N[C@@H](CCC(N)=O)C(=O)N[C@@H](CC(C)C)C(=O)N[C@@H](CCSC)C(=O)N[C@@H](Cc1c[nH]cn1)C(=O)N[C@@H](CCC(N)=O)C(=O)N[C@@H](CCCCNC(=N)N)C(=O)N[C@@H](C)C(=O)N[C@H]1CC(=O)NCCCC[C@@H](C(N)=O)NC(=O)[C@H](CC(N)=O)NC(=O)[C@H](CC(C)C)NC(=O)[C@H](Cc2c[nH]c3ccccc23)NC1=O` [SEQ ID NO: 6, H-Ac5c-Val-Aib-Glu-Ile-Gln-Leu-Met-His-Gln-Har-Ala-Asp( )-Trp-Leu-Asn-Lys( )-NH2] (H-[Ac5c]V[Aib]EIQLMHQ[hArg]ADWLNK-NH2; lactam 13-17), the EC50 was 126 nM and the “Emax ± SEM” value was 1.5.

One may read the EC50 as the concentration at which the effect is half-maximal.
